Patent publication US20140088298A9, “CONJUGATES COMPRISING HYDROXYALKYL STARCH AND A CYTOTOXIC AGENT AND PROCESS FOR THEIR PREPARATION” (Fresenius Kabi Deutschland GmbH, priority 2010, published 2014)

Experiments:
Assay type in all cases: in vivo, NMRI:nu/nu mice
[1] = Body weight change as sign for toxicity, mouse tumor model MT-3; settings: for Toxic deaths (at day): n=8
Description: (§1) Tumor growth inhibition was used as therapeutic parameter. Additionally, body weight change was determined as signs for toxicity (particularly, potential hematological or gastrointestinal side effects).
(§2) Individual body weights of mice were determined twice weekly and mean body weight per group was related to the initial value in percent (body weight change, BWC), see tables in appendix.
(§3) Descriptive statistics was performed on the data of body weight and tumor volume. […] Statistical evaluation was performed with the U-test of Mann and Whitney with a significance level of p<0.05, using the Windows program […] 6.
(§4) Tables 18 to 24 summarize the results for the tested Docetaxel conjugates and the reference compound Taxotere®. […] The loss of body weight is known to be an indicator of gastro-intestinal and hepatotoxicity of the tested compound.

[2] = Body weight change as sign for toxicity, mouse tumor model PC3; settings: Table 20, PC3; maximum body weight loss; conjugates 1 x 75 mg/kg day 6; Docetaxel 5 mg/kg days 6-10
Description: as §1
Descriptive statistics was performed on the data of body weight and tumor volume. […] 6.

[3] = Body weight change as sign for toxicity, mouse tumor model A549; settings: Table 21, A549; maximum body weight loss; conjugates 1 x 75 mg/kg day 8; Docetaxel 5 mg/kg days 8-12
Description: as §1, §2, §3, §4

Row | SMILES | Toxic deaths (at day) ([1]; Table 25, MT-3, conjugates 1 x 100 mg/kg day 7, Paclitaxel 12.5 mg/kg days 7-9, 10 mg/kg days 10-11) | Toxic deaths (at day) ([1]; Table 26, MT-3, conjugates 1 x 80 mg/kg day 10, Paclitaxel 10 mg/kg days 10-14) | Toxic deaths (at day) ([1]; Table 18, MT-3, conjugates 1 x 100 mg/kg i.v. day 7, Docetaxel 10 mg/kg days 7, 9, 11) | Toxic death (at day) ([1]; Table 23, MT-3, conjugates 1 x 75 mg/kg day 7, Docetaxel 5 mg/kg days 7-11) | BWC [%] (at day) [2] | BWC [%] (at day) [3]
1 | CC(=O)O[C@H]1C(=O)[C@@]2(C)[C@H]([C@H](OC(=O)c3ccccc3)[C@]3(O)C[C@H](OC(=O)[C@H](O)[C@@H](NC(=O)c4ccccc4)c4ccccc4)C(C)=C1C3(C)C)[C@]1(OC(C)=O)CO[C@@H]1C[C@@H]2O [Paclitaxel] | 1 | 0 |  |  |  | 
2 | CC(=O)O[C@@]12CO[C@@H]1C[C@H](O)[C@@]1(C)C(=O)[C@H](O)C3=C(C)[C@@H](OC(=O)[C@H](O)[C@@H](NC(=O)OC(C)(C)C)c4ccccc4)C[C@@](O)([C@@H](OC(=O)c4ccccc4)[C@H]21)C3(C)C [Taxotere, Docetaxel] |  |  | 4 | 0 | −14 | −5
